The source of these data is US10273251B2, “Composition, cured film, near infrared ray absorption filter, solid-state imaging device, infrared sensor, and compound” (FUJIFILM Corporation, priority 2014, dated 2019).

Common to all, as to format: physicochemical
Data set [1] can be described thus: Evaluation of maximum absorption wavelength, half-width and absorbance ratio (liquid absorption spectrum). The settings on record: 2.5×10^−6 mol/L, optical path length 10 mm.
Data set [2] can be described thus: Heat resistance of near infrared ray absorption filter (ΔEab before/after heating). The settings on record: filter 1.0 μm, 7.5 mass % compound; 260° C. for 30 minutes on hot plate; ΔEab class. How it is done:
(§1) Compositions below were mixed so as to prepare the composition. A solid content of the composition is 31 mass % and a content of the near infrared ray absorption substance with respect to the total solid content of the composition was 7.5 mass %.
(§2) Glass substrates (1737 manufactured by Corning Incorporated) were coated with respective compositions by using a spin coater such that film thicknesses after drying become 1.0 μm, and a heating treatment (prebaking) was performed for 120 seconds by using a hot plate of 100° C.
(§3) Subsequently, beta exposure was performed by 500 mJ/cm^2 by using an i-ray stepper exposure device FPA-3000i5+ (manufactured by Canon Inc.). Subsequently, puddle development was performed at 23° C. for 60 seconds by using CD-2060 (manufactured by Fujifilm Electronic Materials), a rinse treatment was performed with pure water on a glass substrate on which a beta coloration layer was formed, and spray drying was performed.
(§4) The heating treatment (post baking) was performed for 300 seconds by using a hot plate of 200° C., so as to obtain a near infrared ray absorption filter.
After the near infrared ray absorption filter was heated to 260° C. for 30 minutes by a hot plate, the ΔEab value of a color difference before and after heat resistance test was measured using a color meter MCPD-1000 (manufactured by Otsuka Electronics Co., Ltd.), so as to evaluate a criterion below. A smaller ΔEab value indicates more satisfactory heat resistance.

Data set [3] can be described thus: Light fastness of near infrared ray absorption filter (ΔEab before/after xenon lamp). As to conditions: filter 1.0 μm, 7.5 mass % compound; xenon lamp 50,000 lux for 20 hours; ΔEab class. As to the method:
as §1, §2, §3, §4
After the near infrared ray absorption filter was irradiated with a xenon lamp was applied by 50,000 lux for 20 hours (corresponding to 1,000,000 lux·h), an ΔEab value of a color difference before and after a light-fast test was measured. A smaller ΔEab value indicates more satisfactory light fastness.
The ΔEab value is a value obtained from a color difference equation below according to a CIE 1976 (L*, a*, b*) space color system (Handbook of Color Science, New Edition, edited by the Color Science Association of Japan, (1985), p. 266). ΔEab={(ΔL*)^2[…](Δa*)^2+(Δb*)^2}^1/2

Data set [4] is described as follows: Solubility of the compound to propylene glycol monomethyl ether acetate. The settings on record: visually observed. The source says: Solubility of the compound to propylene glycol monomethyl ether acetate was visually observed.
Data set [5] in a line: Evaluation of maximum absorption wavelength, half-width and absorbance ratio (liquid absorption spectrum). As to conditions: 2.5×10^−6 mol/L, optical path length 10 mm. How it is done:
—Evaluation of Maximum Absorption Wavelength, Half-Width, and Absorbance Ratio—Respective compounds were dissolved in measuring solvents (concentration: 2.5×10^−6 mol/L) described in the table below so as to measure an absorption spectrum (Optical path length: 10 mm).
Maximum absorption wavelengths (λmax) of absorption spectrums, half-widths of the maximum absorption wavelengths, and absorbance ratios (550 nm/λmax) which are values obtained by dividing absorbance at a wavelength of […] by absorbance at the maximum absorption wavelength with respect to respective compounds are presented in Table 1 below. FIG. 3 illustrates an absorption spectrum of the compound D-1 in chloroform.
This is another data set of the same source.

Setting [6] is: measuring solvent ethyl acetate.
The mark [7] stands for this setting: measuring solvent tetrahydrofuran.

On to `CC(CCC(COc1cccc(-c2c3/c(=C(\C#N)c4cnc5cc(Cl)c(Cl)cc5n4)n(B(c4ccccc4)c4ccccc4)c(-c4cccc(OCC(CCC(C)CC(C)(C)C)C(C)CC(C)(C)C)c4)c3/c(=C(\C#N)c3cnc4cc(Cl)c(Cl)cc4n3)n2B(c2ccccc2)c2ccccc2)c1)C(C)CC(C)(C)C)CC(C)(C)C` [Compound D-32], for which the “Absorbance ratio (550 nm/λmax)” value in data set [1] (measuring solvent chloroform) was determined as 0.01. In data set [2], the Heat resistance is given as 5 (ΔEab value<3). Besides, the Light fastness in data set [3] was 5 (ΔEab value<3). The Solubility entry in data set [4] is recorded as “A (Solubility 2% or greater)”. In data set [5] (measuring solvent chloroform), the Half-width came out at 28 nm and the Maximum absorption wavelength is 884 nm.
Regarding `CCCCCCCC/C=C\CCCCCCCCOc1cccc(-c2c3/c(=C(\C#N)c4cnc5cc(Cl)c(Cl)cc5n4)n(B(c4ccccc4)c4ccccc4)c(-c4cccc(OCCCCCCCC/C=C\CCCCCCCC)c4)c3/c(=C(\C#N)c3cnc4cc(Cl)c(Cl)cc4n3)n2B(c2ccccc2)c2ccccc2)c1` [Compound D-5], the “Absorbance ratio (550 nm/λmax)” value in data set [1] (measuring solvent chloroform) was found to be 0.01. For the same molecule, in data set [2], the Heat resistance is recorded as 5 (ΔEab value<3). Also, the Light fastness in data set [3] is listed as 5 (ΔEab value<3). In addition, the Solubility entry in data set [4] was “B (Solubility 0.5% or greater and less than 2%)”. Also, in data set [5] (measuring solvent chloroform), the Half-width came to 29 nm and the Maximum absorption wavelength turned out to be 884 nm.
Consider `CCCCCCCCC(CCCCCC)COc1ccc(-c2c3/c(=C(\C#N)c4cnc5cc(Cl)c(Cl)cc5n4)n(B(c4ccccc4)c4ccccc4)c(-c4ccc(OCC(CCCCCC)CCCCCCCC)cc4)c3/c(=C(\C#N)c3cnc4cc(Cl)c(Cl)cc4n3)n2B(c2ccccc2)c2ccccc2)cc1` (stereo not drawn) [Compound E-1, reference compound], for which the “Absorbance ratio (550 nm/λmax)” value in data set [1] (measuring solvent chloroform) is listed as 0.019. Also, the Heat resistance in data set [2] is 5 (ΔEab value<3). Also, the Light fastness in data set [3] is reported as 5 (ΔEab value<3). Moreover, the Solubility entry in data set [4] is on record as “C (Solubility less than 0.5%)”. In addition, in data set [5] (measuring solvent chloroform), the Half-width is 31 nm and the Maximum absorption wavelength was found to be 884 nm.
Turning to `CCCCCCCCCCC(CCCCCCCC)COc1cccc(-c2c3/c(=C(\C#N)c4cnc5ccccc5n4)n(B(c4ccccc4)c4ccccc4)c(-c4cccc(OCC(CCCCCCCC)CCCCCCCCCC)c4)c3/c(=C(\C#N)c3cnc4ccccc4n3)n2B(c2ccccc2)c2ccccc2)c1` [Compound D-29], the “Absorbance ratio (550 nm/λmax)” value in data set [1] (measuring solvent chloroform) turned out to be 0.006. Moreover, the Heat resistance in data set [2] is reported as 5 (ΔEab value<3). The Light fastness in data set [3] is reported as 5 (ΔEab value<3). Also, in data set [4], the Solubility entry is on record as “A (Solubility 2% or greater)”. For the same molecule, in data set [5] (measuring solvent chloroform), the Half-width came out at 28 nm and the Maximum absorption wavelength is given as 862 nm.
For `CC(CCC(COc1cccc(-c2c3/c(=C(\C#N)c4cnc5ccccc5n4)n(B(c4ccccc4)c4ccccc4)c(-c4cccc(OCC(CCC(C)CC(C)(C)C)C(C)CC(C)(C)C)c4)c3/c(=C(\C#N)c3cnc4ccccc4n3)n2B(c2ccccc2)c2ccccc2)c1)C(C)CC(C)(C)C)CC(C)(C)C` [Compound D-28], the “Absorbance ratio (550 nm/λmax)” value in data set [1] (measuring solvent chloroform) is 0.006. Also, the Heat resistance in data set [2] is reported as 5 (ΔEab value<3). The Light fastness in data set [3] is on record as 5 (ΔEab value<3). In data set [4], the Solubility result was “A (Solubility 2% or greater)”. In data set [5] (measuring solvent chloroform), the Half-width was determined as 29 nm and the Maximum absorption wavelength is recorded as 863 nm.
As for `Cc1cc2ncc(/C(C#N)=c3/c4c(-c5cccc(OCC(CCC(C)CC(C)(C)C)C(C)CC(C)(C)C)c5)n(B(c5ccccc5)c5ccccc5)/c(=C(/C#N)c5cnc6cc(C)c(C)cc6n5)c4c(-c4cccc(OCC(CCC(C)CC(C)(C)C)C(C)CC(C)(C)C)c4)n3B(c3ccccc3)c3ccccc3)nc2cc1C` [Compound D-6], the “Absorbance ratio (550 nm/λmax)” value in data set [1] (measuring solvent chloroform) came to 0.01. Further, the Heat resistance in data set [2] is reported as 5 (ΔEab value<3). The Light fastness in data set [3] is on record as 5 (ΔEab value<3). For the same molecule, the Solubility result in data set [4] is on record as “A (Solubility 2% or greater)”. Further, in data set [5] (measuring solvent chloroform), the Half-width stood at 32 nm and the Maximum absorption wavelength stood at 872 nm.
Regarding `CCCCC(CC)COc1cccc(-c2c3/c(=C(\C#N)c4ccc5ccccc5n4)n(B(c4ccccc4)c4ccccc4)c(-c4cccc(OCC(CC)CCCC)c4)c3/c(=C(\C#N)c3ccc4ccccc4n3)n2B(c2ccccc2)c2ccccc2)c1` [Compound D-10], in data set [1] (measuring solvent chloroform), the “Absorbance ratio (550 nm/λmax)” value is listed as 0.01. For the same molecule, the Heat resistance in data set [2] is 5 (ΔEab value<3). The Light fastness in data set [3] is 5 (ΔEab value<3). Besides, the Solubility entry in data set [4] is listed as “A (Solubility 2% or greater)”. In data set [5] (measuring solvent chloroform), the Half-width was found to be 30 nm and the Maximum absorption wavelength came to 814 nm.
For the molecule `CCCCCCCCC(CCCCCCCC)COc1cccc(-c2c3/c(=C(\C#N)c4cnc5cc(C)ccc5n4)n(B(c4ccccc4)c4ccccc4)c(-c4cccc(OCC(CCCCCCCC)CCCCCCCC)c4)c3/c(=C(\C#N)c3cnc4cc(C)ccc4n3)n2B(c2ccccc2)c2ccccc2)c1` [Compound D-8], in data set [1] (measuring solvent chloroform), the “Absorbance ratio (550 nm/λmax)” value came to 0.01. Moreover, in data set [2], the Heat resistance was 5 (ΔEab value<3). Moreover, in data set [3], the Light fastness is 5 (ΔEab value<3). Moreover, the Solubility result in data set [4] is listed as “A (Solubility 2% or greater)”. Moreover, in data set [5] (measuring solvent chloroform), the Half-width is recorded as 31 nm and the Maximum absorption wavelength was 866 nm.
Consider `CCCCCCCCCCC(CCCCCCCC)COc1cccc(-c2c3/c(=C(\C#N)c4cnc5cc(Cl)c(Cl)cc5n4)n(B(c4ccccc4)c4ccccc4)c(-c4cccc(OCC(CCCCCCCC)CCCCCCCCCC)c4)c3/c(=C(\C#N)c3cnc4cc(Cl)c(Cl)cc4n3)n2B(c2ccccc2)c2ccccc2)c1` [Compound D-31], for which the “Absorbance ratio (550 nm/λmax)” value in data set [1] (measuring solvent chloroform) was 0.01. In data set [2], the Heat resistance is recorded as 5 (ΔEab value<3). Moreover, in data set [3], the Light fastness is listed as 5 (ΔEab value<3). For the same molecule, the Solubility result in data set [4] is “A (Solubility 2% or greater)”. For the same molecule, in data set [5] (measuring solvent chloroform), the Half-width is 28 nm and the Maximum absorption wavelength was determined as 884 nm.
Consider `CCCCCCCCC(CCCCCC)COc1cccc(-c2c3/c(=C(\C#N)c4cnc5cc(Cl)c(Cl)cc5n4)n(B(c4ccccc4)c4ccccc4)c(-c4cccc(OCC(CCCCCC)CCCCCCCC)c4)c3/c(=C(\C#N)c3cnc4cc(Cl)c(Cl)cc4n3)n2B(c2ccccc2)c2ccccc2)c1` [Compound D-1], for which the entries for the “Absorbance ratio (550 nm/λmax)” value in data set [1] (measuring solvent chloroform), in data set [1] (setting [6]) and in data set [1] (setting [7]) were 0.011, 0.011 and 0.01, respectively. For the same molecule, the Heat resistance in data set [2] was 5 (ΔEab value<3). Besides, the Light fastness in data set [3] is 5 (ΔEab value<3). Moreover, in data set [4], the Solubility result is reported as “A (Solubility 2% or greater)”. Besides, the results for the Half-width in data set [5] (measuring solvent chloroform), in data set [5] (setting [6]) and in data set [5] (setting [7]) were 29 nm, 30 nm and 29 nm, respectively. For the same molecule, the Maximum absorption wavelength is 884 nm in data set [5] (measuring solvent chloroform), 880 nm in data set [5] (setting [6]) and 884 nm in data set [5] (setting [7]).
In the case of `COCCOCCOc1cccc(-c2c3/c(=C(\C#N)c4cnc5cc(Cl)c(Cl)cc5n4)n(B(c4ccccc4)c4ccccc4)c(-c4cccc(OCCOCCOC)c4)c3/c(=C(\C#N)c3cnc4cc(Cl)c(Cl)cc4n3)n2B(c2ccccc2)c2ccccc2)c1` [Compound D-4], the “Absorbance ratio (550 nm/λmax)” value in data set [1] (measuring solvent chloroform) is listed as 0.012. Besides, the Heat resistance in data set [2] is recorded as 4 (3≤ΔEab value<5). Besides, the Light fastness in data set [3] is 5 (ΔEab value<3). For the same molecule, the Solubility result in data set [4] is “B (Solubility 0.5% or greater and less than 2%)”. In data set [5] (measuring solvent chloroform), the Half-width is on record as 29 nm and the Maximum absorption wavelength was 883 nm.
Turning to `COc1ccc2oc(/C(C#N)=c3/c4c(-c5cccc(OCC(CCC(C)CC(C)(C)C)C(C)CC(C)(C)C)c5)n(B(c5ccccc5)c5ccccc5)/c(=C(/C#N)c5nc6cc(C)ccc6o5)c4c(-c4cccc(OCC(CCC(C)CC(C)(C)C)C(C)CC(C)(C)C)c4)n3B(c3ccccc3)c3ccccc3)nc2c1` [Compound D-43], in data set [1] (measuring solvent chloroform), the “Absorbance ratio (550 nm/λmax)” value came out at 0.003. Moreover, the Heat resistance in data set [2] is 5 (ΔEab value<3). The Light fastness in data set [3] is reported as 5 (ΔEab value<3). Besides, the Solubility entry in data set [4] is “A (Solubility 2% or greater)”. Besides, in data set [5] (measuring solvent chloroform), the Half-width was found to be 30 nm and the Maximum absorption wavelength is 748 nm.
